Source: US8426174B2, “Method for the production of 2-butanol” (Butamax(TM) Advanced Biofuels LLC, priority 2007, dated 2013)
Read-outs that look alike come from different tables or passages of the source.

Experiments:
E. coli strain MG1655 [1] = tested on: E. coli strain MG1655
Protocol: For the stationary phase studies, E. coli strain MG1655 (ATCC #700926) was grown overnight in LB medium (Teknova, Half Moon Bay, Calif.) with shaking at 250 rpm at 42° C., 29° C. or 28° C. […] To these were added 10 μL of the overnight cultures and the tubes were immediately placed in shaking incubators at 42° C. or 28° C. or left on ice for 30 min. […] Then, 5 μL of the undiluted treated cultures were spotted on LB agar plates. Subsequent 10-fold serial dilutions of 10^−3, 10^−4, 10^−5 and 10^−6 of the exposed cultures were done by serial pipetting of 20 μL, starting with the 10^−2 dilution cultures, into 180 μL of LB medium in the microplate, using a multi-channel pipette. Prior to each transfer, the cultures were mixed by pipetting up and down six times. Each dilution (5 μL) was spotted onto an LB plate using a multi-channel pipette and allowed to soak into the plate. The plates were inverted and incubated overnight at 37° C. […] Survival of 0% was recorded when no colonies in the spots of the undiluted or any of the serial dilutions were observed.

E. coli strain MG1655 [2] = tested on: E. coli strain MG1655; remark: listed apart in the source
Protocol: A similar study was done with log-phase cultures of E. coli grown in a defined medium. E. coli strain MG1655 was allowed to grow overnight in MOPS 0.2% glucose medium (Teknova, Half Moon Bay, Calif.) at 42° C. or 28° C. The following day, the cultures were diluted into fresh medium and allowed to grow at the same temperature until in the log phase of growth. […] To these were added 10 μL of the log phase cultures and the tubes were immediately placed in shaking incubators at 42° C. or 28° C. or left on ice for 30 min. […] Then 5 μL of the undiluted treated cultures were spotted on LB agar plates. Subsequent 10-fold serial dilutions of 10^−3, 10^−4, 10^−5 and 10^−6 of the exposed cultures were done by serial pipetting of 20 μL, starting with the 10^−2 dilution cultures, into 180 μL of LB medium in the microplate, using a multi-channel pipette. Prior to each transfer, the cultures were mixed by pipetting up and down six times. Each dilution (5 μL) was spotted onto an LB plate using a multi-channel pipette and allowed to soak into the plate. The plates were inverted and incubated overnight at 37° C. […] Survival of 0% was recorded when no colonies in the spots of the undiluted or any of the serial dilutions were observed.

[3] = 1.0 % (w/v) 1-butanol, grown at 28° C.
[4] = 1.0 % (w/v) 1-butanol, grown at 29° C.
[5] = 1.0 % (w/v) 1-butanol, grown at 42° C.
[6] = 1.5 % (w/v) 1-butanol, grown at 28° C.
[7] = 1.5 % (w/v) 1-butanol, grown at 29° C.
[8] = 1.5 % (w/v) 1-butanol, grown at 42° C.
[9] = 2.0 % (w/v) 1-butanol, grown at 28° C.
[10] = 2.0 % (w/v) 1-butanol, grown at 29° C.
[11] = 2.0 % (w/v) 1-butanol, grown at 42° C.
[12] = 3.0 % (w/v) 1-butanol, grown at 28° C.
[13] = 3.0 % (w/v) 1-butanol, grown at 29° C.
[14] = 3.0 % (w/v) 1-butanol, grown at 42° C.
[15] = 4.0 % (w/v) 1-butanol, grown at 28° C.
[16] = 4.0 % (w/v) 1-butanol, grown at 29° C.
[17] = 4.0 % (w/v) 1-butanol, grown at 42° C.
[18] = 5.0 % (w/v) 1-butanol, grown at 29° C.
[19] = 5.0 % (w/v) 1-butanol, grown at 42° C.
[20] = 6.0 % (w/v) 1-butanol, grown at 29° C.
[21] = 6.0 % (w/v) 1-butanol, grown at 42° C.
[22] = […] (w/v) 1-butanol, grown at 29° C.
[23] = […] (w/v) 1-butanol, grown at 42° C.

1-butanol
% survival after 30 min exposure at 28° C. (E. coli strain MG1655 [1]; [3]): 100% | % survival after 30 min exposure at 0° C. (E. coli strain MG1655 [1]; [4]): 100% | % survival after 30 min exposure at 42° C. (E. coli strain MG1655 [1]; [4]): 100% | % survival after 30 min exposure at 0° C. (E. coli strain MG1655 [1]; [5]): 100% | % survival after 30 min exposure at 28° C. (E. coli strain MG1655 [1]; [5]): 100% | % survival after 30 min exposure at 42° C. (E. coli strain MG1655 [1]; [5]): 100% | % survival after 30 min exposure at 28° C. (E. coli strain MG1655 [1]; [6]): 100% | % survival after 30 min exposure at 0° C. (E. coli strain MG1655 [1]; [7]): 100% | % survival after 30 min exposure at 42° C. (E. coli strain MG1655 [1]; [7]): 0.1% | % survival after 30 min exposure at 0° C. (E. coli strain MG1655 [1]; [8]): 100% | % survival after 30 min exposure at 28° C. (E. coli strain MG1655 [1]; [8]): 100% | % survival after 30 min exposure at 42° C. (E. coli strain MG1655 [1]; [8]): 0.1% | % survival after 30 min exposure at 28° C. (E. coli strain MG1655 [1]; [9]): 100% | % survival after 30 min exposure at 0° C. (E. coli strain MG1655 [1]; [10]): 100% | % survival after 30 min exposure at 42° C. (E. coli strain MG1655 [1]; [10]): 0.1% | % survival after 30 min exposure at 0° C. (E. coli strain MG1655 [1]; [11]): 100% | % survival after 30 min exposure at 28° C. (E. coli strain MG1655 [1]; [11]): 100% | % survival after 30 min exposure at 42° C. (E. coli strain MG1655 [1]; [11]): 0% | % survival after 30 min exposure at 28° C. (E. coli strain MG1655 [1]; [12]): 100% | % survival after 30 min exposure at 0° C. (E. coli strain MG1655 [1]; [13]): 100% | % survival after 30 min exposure at 42° C. (E. coli strain MG1655 [1]; [13]): 0% | % survival after 30 min exposure at 0° C. (E. coli strain MG1655 [1]; [14]): 100% | % survival after 30 min exposure at 28° C. (E. coli strain MG1655 [1]; [14]): 100% | % survival after 30 min exposure at 42° C. (E. coli strain MG1655 [1]; [14]): 0% | % survival after 30 min exposure at 28° C. (E. coli strain MG1655 [1]; [15]): 0.0003% | % survival after 30 min exposure at 0° C. (E. coli strain MG1655 [1]; [16]): 100% | % survival after 30 min exposure at 42° C. (E. coli strain MG1655 [1]; [16]): 0% | % survival after 30 min exposure at 0° C. (E. coli strain MG1655 [1]; [17]): 100% | % survival after 30 min exposure at 28° C. (E. coli strain MG1655 [1]; [17]): 0.0004% | % survival after 30 min exposure at 42° C. (E. coli strain MG1655 [1]; [17]): 0% | % survival after 30 min exposure at 0° C. (E. coli strain MG1655 [1]; [18]): 1% | % survival after 30 min exposure at 0° C. (E. coli strain MG1655 [1]; [19]): 1% | % survival after 30 min exposure at 0° C. (E. coli strain MG1655 [1]; [20]): 0.001% | % survival after 30 min exposure at 0° C. (E. coli strain MG1655 [1]; [21]): 0% | % survival after 30 min exposure at 0° C. (E. coli strain MG1655 [1]; 7.0 % (w/v) 1-butanol, grown at 29° C.): 0% | % survival after 30 min exposure at 0° C. (E. coli strain MG1655 [1]; 7.0 % (w/v) 1-butanol, grown at 42° C.): 0% | % survival after 30 min exposure at 0° C. (E. coli strain MG1655 [1]; [22]): 100% | % survival after 30 min exposure at 42° C. (E. coli strain MG1655 [1]; [22]): 0% | % survival after 30 min exposure at 0° C. (E. coli strain MG1655 [1]; [23]): 100% | % survival after 30 min exposure at 42° C. (E. coli strain MG1655 [1]; [23]): 0% | % survival after 30 min exposure at 42° C. (E. coli strain MG1655 [2]; [3]): 100% | % survival after 30 min exposure at 42° C. (E. coli strain MG1655 [2]; [5]): 100% | % survival after 30 min exposure at 28° C. (E. coli strain MG1655 [2]; [6]): 100% | % survival after 30 min exposure at 42° C. (E. coli strain MG1655 [2]; [6]): 0% | % survival after 30 min exposure at 28° C. (E. coli strain MG1655 [2]; [8]): 100% | % survival after 30 min exposure at 42° C. (E. coli strain MG1655 [2]; [8]): 0% | % survival after 30 min exposure at 28° C. (E. coli strain MG1655 [2]; [9]): 100% | % survival after 30 min exposure at 42° C. (E. coli strain MG1655 [2]; [9]): 0% | % survival after 30 min exposure at 28° C. (E. coli strain MG1655 [2]; [11]): 100% | % survival after 30 min exposure at 42° C. (E. coli strain MG1655 [2]; [11]): 0% | % survival after 30 min exposure at 28° C. (E. coli strain MG1655 [2]; [12]): 0% | % survival after 30 min exposure at 42° C. (E. coli strain MG1655 [2]; [12]): 0% | % survival after 30 min exposure at 0° C. (E. coli strain MG1655 [2]; [13]): 100% | % survival after 30 min exposure at 0° C. (E. coli strain MG1655 [2]; [14]): 100% | % survival after 30 min exposure at 28° C. (E. coli strain MG1655 [2]; [14]): 0% | % survival after 30 min exposure at 42° C. (E. coli strain MG1655 [2]; [14]): 0% | % survival after 30 min exposure at 28° C. (E. coli strain MG1655 [2]; [15]): 0% | % survival after 30 min exposure at 42° C. (E. coli strain MG1655 [2]; [15]): 0% | % survival after 30 min exposure at 0° C. (E. coli strain MG1655 [2]; [16]): 100% | % survival after 30 min exposure at 0° C. (E. coli strain MG1655 [2]; [17]): 100% | % survival after 30 min exposure at 28° C. (E. coli strain MG1655 [2]; [17]): 0.001% | % survival after 30 min exposure at 42° C. (E. coli strain MG1655 [2]; [17]): 0% | % survival after 30 min exposure at 0° C. (E. coli strain MG1655 [2]; [18]): 50% | % survival after 30 min exposure at 0° C. (E. coli strain MG1655 [2]; [19]): 10% | % survival after 30 min exposure at 0° C. (E. coli strain MG1655 [2]; [20]): 1% | % survival after 30 min exposure at 0° C. (E. coli strain MG1655 [2]; [21]): 1% | % survival after 30 min exposure at 42° C. (E. coli strain MG1655 [2]; […] (w/v) 1-butanol, grown at 28° C.): 0% | % survival after 30 min exposure at 0° C. (E. coli strain MG1655 [2]; [22]): 100% | % survival after 30 min exposure at 0° C. (E. coli strain MG1655 [2]; [23]): 100% | % survival after 30 min exposure at 42° C. (E. coli strain MG1655 [2]; [23]): 0%
